Source: patent US8314117B2, “CGRP receptor antagonists” (Bristol-Myers Squibb Company, priority 2009, dated 2012)

The molecules below were run against T1, Human CGRP Receptor (Homo sapiens, UniProt O60894+Q16602) (assay: Radioligand binding assay, [125I]-CGRP displacement from SK-N-MC cell membranes). Settings: SK-N-MC membranes (7 μg/well); [125I]-CGRP final 18 pM; room temperature 2 h; at least two separate experiments.
T1 construct: Crude membranes were prepared from SK-N-MC cells expressing CGRP receptors; endogenous in cells; host or cells: SK-N-MC cells (crude membranes)
Experimental: Tissue Culture. SK-N-MC cells were grown at 37° C. in 5% CO2 as a monolayer in medium consisting of MEM with Earle's salts and L-glutamine (Invitrogen) supplemented with 10% fetal bovine serum (Invitrogen). Membrane Preparation. Crude membranes were prepared from SK-N-MC cells expressing CGRP receptors. The cells were rinsed twice with phosphate-buffered saline (155 mM NaCl, 3.3 mM Na2HPO4, 1.1 mM […]4, pH 7.4), and incubated for 5-10 min. at 4° C. in hypotonic lysis buffer consisting of 10 mM Tris (pH 7.4) and 5 mM EDTA. […] Homogenates were centrifuged at 32,000×g for 30 min. The pellets were resuspended in cold hypotonic lysis buffer with 0.1% mammalian protease inhibitor cocktail (Sigma) and assayed for protein concentration. The SK-N-MC homogenate was aliquoted and stored at -80° C. Radioligand Binding Assay. The compounds of invention were solubilized and carried through serial dilutions using 100% DMSO. […] [^125I]-CGRP (GE Healthcare or Perkin-Elmer) was diluted to […] in assay buffer and a volume of 50 μl was added to each well. SK-N-MC membranes were thawed, diluted in assay buffer with fresh 0.1% mammalian protease inhibitor cocktail (Sigma), and re-homogenized. SK-N-MC homogenate (7 μg/well) was added in a volume of 100 μl. The assay plates were then incubated at room temperature for 2 h. […] Protein bound radioactivity was determined using a gamma or scintillation counter. […] Final assay concentration of [^125I]-CGRP was 18 pM. […] All compounds of invention were evaluated in at least two separate experiments.

T1 sequence (Q16602 23-461): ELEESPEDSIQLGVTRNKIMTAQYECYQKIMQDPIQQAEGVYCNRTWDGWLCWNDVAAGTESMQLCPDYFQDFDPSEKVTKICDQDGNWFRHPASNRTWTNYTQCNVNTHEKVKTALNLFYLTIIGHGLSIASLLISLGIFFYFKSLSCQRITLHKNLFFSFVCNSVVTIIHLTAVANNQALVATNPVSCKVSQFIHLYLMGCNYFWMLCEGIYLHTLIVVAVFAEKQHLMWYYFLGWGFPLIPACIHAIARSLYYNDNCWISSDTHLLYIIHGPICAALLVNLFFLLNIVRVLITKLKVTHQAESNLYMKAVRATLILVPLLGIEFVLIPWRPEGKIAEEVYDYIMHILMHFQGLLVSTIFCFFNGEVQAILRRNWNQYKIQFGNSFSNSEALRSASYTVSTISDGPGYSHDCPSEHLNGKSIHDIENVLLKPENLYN
T1 sequence (O60894 27-148): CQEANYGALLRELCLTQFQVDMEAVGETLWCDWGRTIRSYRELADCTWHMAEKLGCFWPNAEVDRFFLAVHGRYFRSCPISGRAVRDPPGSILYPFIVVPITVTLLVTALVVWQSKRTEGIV

Row | SMILES | IC50 [nM]
1 | O=C1c2cccnc2[C@H](OC(=O)N2CCC(n3c(=O)[nH]c4ncccc43)CC2)CCC1c1cccc(F)c1F (mixture of isomers) [Example 2, (9R)-6-(2,3-difluorophenyl)-5-oxo-6,7,8,9-tetrahydro-5H-cyclohepta[b]pyridin-9-yl 4-(2-oxo-2,3-dihydro-1H-imidazo[4,5-b]pyridin-1-yl)piperidine-1-carboxylate] | 28
2 | O=C(O[C@@H]1CC[C@@](O)(c2cccc(F)c2F)C(=O)c2cccnc21)N1CCC(n2c(=O)[nH]c3ncccc32)CC1 (single isomer, unassigned) [Example 1] | 410
3 | O=C(O[C@@H]1CC[C@@](O)(c2cccc(F)c2F)[C@@H](O)c2cccnc21)N1CCC(n2c(=O)[nH]c3ncccc32)CC1 (single isomer, unassigned) [Example 3] | 500
4 | O=C(O[C@@H]1CCC(c2cccc(F)c2F)C(O)c2cccnc21)N1CCC(n2c(=O)[nH]c3ncccc32)CC1 (single isomer, unassigned) [Example 5] | 1.3
5 | O=C(O[C@@H]1CC[C@@H](c2cccc(F)c2F)[C@H](O)c2cccnc21)N1CCC(n2c(=O)[nH]c3ncccc32)CC1 [Example 4, (5S,6S,9R)-6-(2,3-difluorophenyl)-5-hydroxy-6,7,8,9-tetrahydro-5H-cyclohepta[b]pyridin-9-yl 4-(2-oxo-2,3-dihydro-1H-imidazo[4,5-b]pyridin-1-yl)piperidine-1-carboxylate] | 0.16
6 | O=C(O[C@@H]1CC[C@H](c2cccc(F)c2F)[C@H](O)c2cccnc21)N1CCC(n2c(=O)[nH]c3ncccc32)CC1 [Example 6, (5S,6R,9R)-6-(2,3-difluorophenyl)-5-hydroxy-6,7,8,9-tetrahydro-5H-cyclohepta[b]pyridin-9-yl 4-(2-oxo-2,3-dihydro-1H-imidazo[4,5-b]pyridin-1-yl)piperidine-1-carboxylate] | 8.6
7 | [N-]=[N+]=N[C@@H]1c2cccnc2[C@H](OC(=O)N2CCC(n3c(=O)[nH]c4ncccc43)CC2)CC[C@H]1c1cccc(F)c1F [Example 7, (5S,6S,9R)-5-azido-6-(2,3-difluorophenyl)-6,7,8,9-tetrahydro-5H-cyclohepta[b]pyridin-9-yl 4-(2-oxo-2,3-dihydro-1H-imidazo[4,5-b]pyridin-1-yl)piperidine-1-carboxylate] | 0.13
8 | N[C@@H]1c2cccnc2[C@H](OC(=O)N2CCC(n3c(=O)[nH]c4ncccc43)CC2)CC[C@H]1c1cccc(F)c1F [Example 8, (5S,6S,9R)-5-amino-6-(2,3-difluorophenyl)-6,7,8,9-tetrahydro-5H-cyclohepta[b]pyridin-9-yl 4-(2-oxo-2,3-dihydro-1H-imidazo[4,5-b]pyridin-1-yl)piperidine-1-carboxylate] | 0.04
9 | N[C@@H]1c2cccnc2[C@H](OC(=O)N2CCC(n3c(=O)[nH]c4ncccc43)CC2)CC[C@H]1c1cc(F)cc(F)c1 [Example 10, (5S,6S,9R)-5-amino-6-(3,5-difluorophenyl)-6,7,8,9-tetrahydro-5H-cyclohepta[b]pyridin-9-yl 4-(2-oxo-2,3-dihydro-1H-imidazo[4,5-b]pyridin-1-yl)piperidine-1-carboxylate] | 0.2
10 | O=C(O[C@@H]1CC[C@@H](c2cc(F)cc(F)c2)[C@H](O)c2cccnc21)N1CCC(n2c(=O)[nH]c3ncccc32)CC1 [Example 11, (5S,6S,9R)-6-(3,5-difluorophenyl)-5-hydroxy-6,7,8,9-tetrahydro-5H-cyclohepta[b]pyridin-9-yl 4-(2-oxo-2,3-dihydro-1H-imidazo[4,5-b]pyridin-1-yl)piperidine-1-carboxylate] | 0.89
11 | O=C(O[C@H]1c2ncccc2C[C@H](c2cccc(F)c2F)C[C@H]1O)N1CCC(n2c(=O)[nH]c3ncccc32)CC1 [Example 12, (6S,8R,9S)-6-(2,3-difluorophenyl)-8-hydroxy-6,7,8,9-tetrahydro-5H-cyclohepta[b]pyridin-9-yl 4-(2-oxo-2,3-dihydro-1H-imidazo[4,5-b]pyridin-1-yl)piperidine-1-carboxylate] | 12
12 | CN[C@@H]1c2cccnc2[C@H](OC(=O)N2CCC(n3c(=O)[nH]c4ncccc43)CC2)CC[C@H]1c1cccc(F)c1F [Example 13, (5S,6S,9R)-6-(2,3-difluorophenyl)-5-(methylamino)-6,7,8,9-tetrahydro-5H-cyclohepta[b]pyridin-9-yl 4-(2-oxo-2,3-dihydro-1H-imidazo[4,5-b]pyridin-1-yl)piperidine-1-carboxylate] | 0.19
13 | CN(C)[C@@H]1c2cccnc2[C@H](OC(=O)N2CCC(n3c(=O)[nH]c4ncccc43)CC2)CC[C@H]1c1cccc(F)c1F [Example 14, (5S,6S,9R)-6-(2,3-difluorophenyl)-5-(dimethylamino)-6,7,8,9-tetrahydro-5H-cyclohepta[b]pyridin-9-yl 4-(2-oxo-2,3-dihydro-1H-imidazo[4,5-b]pyridin-1-yl)piperidine-1-carboxylate] | 2
14 | O=C(O[C@@H]1CC[C@@H](c2cccc(F)c2F)/C(=N/O)c2cccnc21)N1CCC(n2c(=O)[nH]c3ncccc32)CC1 [Example 15, (6S,9R,Z)-6-(2,3-difluorophenyl)-5-(hydroxyimino)-6,7,8,9-tetrahydro-5H-cyclohepta[b]pyridin-9-yl 4-(2-oxo-2,3-dihydro-1H-imidazo[4,5-b]pyridin-1-yl)piperidine-1-carboxylate] | 28
15 | O=C(O[C@@H]1CC[C@@H](c2cccc(F)c2F)/C(=N\O)c2cccnc21)N1CCC(n2c(=O)[nH]c3ncccc32)CC1 [Example 16, (6S,9R,E)-6-(2,3-difluorophenyl)-5-(hydroxyimino)-6,7,8,9-tetrahydro-5H-cyclohepta[b]pyridin-9-yl 4-(2-oxo-2,3-dihydro-1H-imidazo[4,5-b]pyridin-1-yl)piperidine-1-carboxylate] | 40
16 | N[C@@H]1c2cccnc2[C@H](OC(=O)Nc2ccc3c(c2)CC2(C3)C(=O)Nc3ncccc32)CC[C@H]1c1cccc(F)c1F (stereo partly drawn) [Example 17, (5S,6S,9R)-5-amino-6-(2,3-difluorophenyl)-6,7,8,9-tetrahydro-5H-cyclohepta[b]pyridin-9-yl 2′-oxo-1,1′,2′,3-tetrahydrospiro[indene-2,3′-pyrrolo[2,3-b]pyridine]-5-ylcarbamate] | 1.2
17 | N[C@@H]1c2cccnc2[C@H](NC(=O)N2CCC(n3c(=O)[nH]c4ncccc43)CC2)CC[C@H]1c1cccc(F)c1F [Example 18] | 0.8
18 | N[C@@H]1c2cccnc2[C@@H](CC(=O)N2CCC(n3c(=O)[nH]c4ncccc43)CC2)CC[C@H]1c1cccc(F)c1F [Example 21, 1-(1-(2-((5S,6S,9R)-5-amino-6-(2,3-difluorophenyl)-6,7,8,9-tetrahydro-5H-cyclohepta[b]pyridin-9-yl)acetyl)piperidin-4-yl)-1H-imidazo[4,5-b]pyridin-2(3H)-one] | > 1000
